From PubChem BioAssay (NCI)
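These data come from cells grown in 96-well plates and exposed to compound for 48 hours at five concentrations. The concentration for full growth arrest is given as TGI.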

What was measured:
Experiment in all cases: NCI anticancer screen, dose series, 48 h
[1] = system: SF-539 CNS
[2] = system: COLO 205 colon
[3] = system: DU-145 prostate
[4] = system: IGROV1 ovarian
[5] = system: MCF7 breast
[6] = system: SF-268 CNS
[7] = system: MDA-MB-231 breast
[8] = system: A498 renal
[9] = system: NCI/ADR-RES ovarian
[10] = system: SK-MEL-5 melanoma
[11] = system: RPMI-8226 leukemia
[12] = system: NCI-H522 lung
[13] = system: LOX IMVI melanoma
[14] = system: SNB-19 CNS

Structure (SMILES)	TGI [1] [µM]	TGI [2] [µM]	TGI [3] [µM]	TGI [4] [µM]	TGI [5] [µM]	TGI [6] [µM]	TGI [7] [µM]	TGI [8] [µM]	TGI [9] [µM]	TGI [10] [µM]	TGI [11] [µM]	TGI [12] [µM]	TGI [13] [µM]	TGI [14] [µM]
CC(=O)N1N=C(c2ccc3ccccc3c2O)CC1c1ccc(Cl)cc1Cl (configuration not stated)	50.6	> 100	> 100	> 100	> 100	93.1	> 100	> 100	> 100	> 100	> 100	> 100		
N#Cc1nc(-c2ccccc2O)oc1N			> 100	> 100	> 100	> 100	> 100	> 100		> 100	> 100		> 100	> 100
COc1cc(CCC(=O)O)c2cc3ccccc3cc2c1O		36.2		41.1	34.4	38.1	41.4	99.5	80.7	28.4	26.4	45.1	53.5	60.5
CC(=O)n1cc(CC(C)O)c(=O)[nH]c1=O (configuration not stated)	> 100	> 100		> 100		> 100		> 100		> 100	> 100	> 100	> 100	> 100
CC(C)(C)c1cc(Oc2ccc(C#N)c(C#N)c2)cc(C(C)(C)C)c1	> 100	> 100		> 100		> 100		> 100		> 100	> 100	> 100	94.6	> 100
CC(=O)OCC1=C2C(OC(=O)C(C)C)CC3(COC(C)=O)OC3/C=C\C3(C)OC3C2OC1=O (configuration not stated)	> 100	> 100	> 100	> 100	> 100	> 100	> 100	> 100		> 100	> 100		> 100	> 100
c1ccc(N=C2C(=Nc3ccccc3)N(C3CCCCC3)C(=NC3CCCCC3)N2c2ccccc2)cc1		> 100		> 100	> 100		> 100	> 100		> 100	> 100			> 100
CCOC(=O)c1ncn2c1[nH]c(=O)c1ccccc12	> 100	> 100		> 100		> 100				> 100	> 100	> 100	> 100	> 100
CC(=O)N1N=C(c2ccccc2Nc2ccccc2C2=NN(C(C)=O)C(c3ccccc3)O2)OC1c1ccccc1 (configuration not stated)		> 100	> 100	> 100	> 100		> 100		> 100	> 100	> 100	> 100	> 100	> 100
O=C1CC(NCCCNC2CC(=O)c3c(Br)sc(Br)c32)c2c(Br)sc(Br)c21 (configuration not stated)	8.56	5.89	3.64	3.7		11.7	4.3		5.64	6.04	> 100			6.75
OC1=CN=C(C2CC2)Oc2ccccc21	> 100	> 100		> 100		> 100		> 100		> 100	> 100		> 100	> 100
C=CC(Br)(CBr)CCC(Br)C(C)(C)Br (configuration not stated)	29.9	28.8		28.5		32.3				27.8	11.9	30.1	25.5	
O=C(OCC(Cl)(Cl)Cl)N1CC[C@@H](C2CCCCC2)C1		56.3	> 100	> 100	45.5	34.3	> 100		32.9	36.6		43.1	> 100	38.6
Cc1ccc(S(=O)(=O)N/N=C2/C3C(CC2(C)C)C2(C)CCCC3(C)C2O)cc1 (configuration not stated)		31.8	> 100	69.8	43.2	> 100			94.6	28.8	> 100	44.5	27.4	96.5
c1ccc2c(c1)ccc1nc3ccccn3c12	> 100	> 100	> 100	> 100	> 100	> 100			> 100	> 100	> 100			> 100
COc1ccc(N2C(=O)C(C#N)=C(SC)C(C#N)C2=O)cc1 (configuration not stated)	> 100	> 100		> 100	> 100	> 100	> 100	> 100	> 100	> 100		> 100	> 100	> 100
CCCC(=O)n1[nH]c(=O)n(C(C)(C)C)c1=O		> 100	> 100	> 100	> 100	> 100	> 100		> 100	> 100	> 100		> 100	> 100
O=C(Cc1nc2ccc(C(=O)c3ccccc3)cc2[nH]c1=O)C(=O)Nc1ccc(C(F)(F)F)cc1[N+](=O)[O-]	> 100	> 100		> 100		> 100		> 100		> 100	> 100	> 100	> 100	> 100
Cc1ccc(S(=O)(=O)C(C#N)c2nc3ccccc3nc2N2CCOCC2)cc1 (configuration not stated)	> 100	> 100		59.1		71.1		> 100		> 100	87.6	37.3	57.3	95.6
c1csc(-c2sc(-c3ccsc3)cc2Cc2ccsc2)c1		> 10	> 10	> 10	> 10	> 10	> 10			> 10	> 10		> 10	
c1ccc(CNCCCNCCCCNCCCNCc2ccccc2)cc1	3.72		25.4	5.58	14.4	25.6	22.1		> 100	> 56.2	13.7	3.37	14.2	27.4
